# Assay results taken from patent publication US20220402935A1, “HETEROCYCLIC COMPOUND” (FIMECS, INC., priority 2019, published 2022).
# Counter-ions that a name gives are not always drawn.
# How the values were obtained:
# IRAK-M [1] = target: T1, IRAK-M (Homo sapiens, UniProt Q9Y616); test: IRAK-M binding inhibitory activity (KINOMEscan active site-dependent competitive assay); design: purchased Eurofins Discover X; conditions: for IC50: second symbol of cell, read-out: IRAK-M binding inhibition IC50 value; for remaining binding at 1 µM: concentration of the test compound 1 μM, first symbol of cell, read-out: IRAK-M binding inhibition activity % Ctrl
# T1 sequence (Q9Y616 1-596): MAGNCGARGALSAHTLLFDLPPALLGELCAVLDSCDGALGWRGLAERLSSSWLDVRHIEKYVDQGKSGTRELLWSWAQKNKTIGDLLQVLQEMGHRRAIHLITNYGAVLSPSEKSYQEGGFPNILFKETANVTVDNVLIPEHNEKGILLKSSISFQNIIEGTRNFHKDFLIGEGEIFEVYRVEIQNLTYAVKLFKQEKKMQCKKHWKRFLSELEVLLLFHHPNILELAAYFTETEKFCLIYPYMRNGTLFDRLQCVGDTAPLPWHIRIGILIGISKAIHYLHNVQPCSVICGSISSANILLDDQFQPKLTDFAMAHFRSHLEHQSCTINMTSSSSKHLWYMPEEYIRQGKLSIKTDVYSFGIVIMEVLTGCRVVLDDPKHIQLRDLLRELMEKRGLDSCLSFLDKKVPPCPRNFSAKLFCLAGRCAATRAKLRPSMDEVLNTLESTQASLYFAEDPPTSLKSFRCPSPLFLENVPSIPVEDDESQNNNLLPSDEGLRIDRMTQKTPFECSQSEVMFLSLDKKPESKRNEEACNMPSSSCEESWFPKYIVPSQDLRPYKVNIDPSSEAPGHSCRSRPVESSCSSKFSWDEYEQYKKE
# Summary of the method: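 Readout given as % Ctrl, with DMSO as 100% and a control compound as 0%, scaling the test compound signal between them. Binding to human IRAK-M was assessed by KINOMEscan competition at the kinase active site.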
# [2] = target: T2, human XIAP_BIR3 domain purified protein (Homo sapiens, UniProt P98170); test: XIAP binding inhibitory activity (HTRF, b-Smac ligand); conditions: second symbol of cell; read-out: XIAP binding inhibition IC50 value
# T2 construct: purchased R & D
# Summary of the method: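 HTRF competition between compound and C-terminally biotinylated Smac peptide AVPIAQK for His-tagged XIAP BIR3, both diluted to 90 nM before addition, in pH 7.5 HEPES/NaCl/BSA/Triton buffer. Eu-cryptate anti-His and streptavidin-XL665 added, ≥4 h at room temperature in the dark; inhibition % from 665/615 nm ratio versus no-compound wells.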
# IRAK-M [3] = target: T1, IRAK-M; test: In vitro degradation activity of target protein (IRAK-M ELISA in THP1 cells); format: cell-based; design: host or cells: THP1 cells; conditions: 24 hours, second symbol of cell, read-out: IRAK-M 50% degradation concentration (DC50 value)
# Method: In vitro degradation activities of target protein of the example compounds were evaluated using Enzyme-linked immuno-sorbent assay (ELISA) by the following assay steps. THP1 cells (ATCC, TIB-202) were cultured in RPMI-1640 supplemented with 10% FBS, lx sodium pyruvate, lx HEPES, D-(+)-glucose and 1% penicillin/streptomycin. THP1 cells were seeded at a density of 1×10^6 cells/well in 24-well plate and treated with DMSO control or test compound, and then incubated for 24 hours. The cells were collected and lysed on ice for 30 minutes in lysis buffer (PBS containing 0.1% Triton X-100) containing a protease inhibitor cocktail (Roche, Cat #11836170001). The lysates were sonicated for 30 sec ON/30 sec OFF for ten cycles and centrifuged for 10 minutes at 13k rpm at 4° C. Protein concentrations were determined by the BCA assay (Sigma, Cat #QPBCA-1KT). The ELISA assay was performed using the Human IRAK3/IRAKM/IRAK-M ELISA Kit (LifeSpan BioSciences, Cat #LS-F35271), and the protein levels of IRAK-M were evaluated according to the kit protocol. As to the IRAK-M degradation rate of test compounds, protein degradation rate (%) when the concentration of the test compound is […] described as A≥75%, 50%≤B<75%, 25%≤C<50%, D<25%, or 50% degradation concentration (DC50 value) described as A<0.03 μM, 0.03 μM≤B<0.1 μM, 0.1 μM≤C<0.3 μM, 0.3 μM≤D<1 μM, is shown in the table below.
# T2 sequence (P98170 252-356 limits assumed): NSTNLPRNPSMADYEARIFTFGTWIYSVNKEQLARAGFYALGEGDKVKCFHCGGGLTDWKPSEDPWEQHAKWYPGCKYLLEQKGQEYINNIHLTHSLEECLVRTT
Compound,IC50 (IRAK-M [1]),IC50 [2],DC50 (IRAK-M [3]),remaining binding at 1 µM (IRAK-M [1])
"CN[C@@H](C)C(=O)N[C@H](C(=O)N1CCN(C(=O)c2c(C(=O)N(C)CCOCCOCCOc3cc(CN4CCC(Oc5ccnc6ccsc56)CC4)on3)c3cc(F)c(F)cc3n2C)CC1)C1CCCCC1 [Example 1, 2-(4-((S)-2-Cyclohexyl-2-((S)-2-(methylamino)propanamido)acetyl)piperazine-1-carbonyl)-5,6-difluoro-N,1-dimethyl-N-(2-(2-(2-((5-((4-(thieno[3,2-b]pyridin-7-yloxy)piperidin-1-yl)methyl)isoxazol-3-yl)oxy)ethoxy)ethoxy)ethyl)-1H-indole-3-carboxamide hydrochloride]",300 to 1000 nM,300 to 3000 nM,300 to 1000 nM,–
"CN[C@@H](C)C(=O)N[C@H](C(=O)N1CCN(C(=O)c2c(C(=O)NCCOCCOCCOc3cc(CN4CCC(Oc5ccnc6ccsc56)CC4)on3)c3cc(F)c(F)cc3n2C)[C@@H](C)C1)C1CCCCC1 [Example 12, 2-((S)-4-((S)-2-cyclohexyl-2-((S)-2-(methylamino)propanamido)acetyl)-2-methylpiperazine-1-carbonyl)-5,6-difluoro-1-methyl-N-(2-(2-(2-((5-((4-(thieno[3,2-b]pyridin-7-yloxy)piperidin-1-yl)methyl)isoxazol-3-yl)oxy)ethoxy)ethoxy)ethyl)-1H-indole-3-carboxamide]",–,300 to 3000 nM,100 to 300 nM,< 25%
"CN[C@@H](C)C(=O)N[C@H](C(=O)N1CCN(C(=O)c2cc3cc(F)c(F)cc3n2CC(=O)N(C)CCOCCOCCOCCOc2cc(CN3CCC(Oc4ccnc5ccsc45)CC3)on2)CC1)C1CCCCC1 [Example 24, (S)-N-((S)-1-Cyclohexyl-2-(4-(5,6-difluoro-1-(3-methyl-2-oxo-14-((5-((4-(thieno[3,2-b]pyridin-7-yloxy)piperidin-1-yl)methyl)isoxazol-3-yl)oxy)-6,9,12-trioxa-3-azatetradecyl)-1H-indole-2-carbonyl)piperazin-1-yl)-2-oxoethyl)-2-(methylamino)propanamide hydrochloride]",–,3000 to 30000 nM,300 to 1000 nM,< 25%
"CN[C@@H](C)C(=O)N[C@H](C(=O)N1CCN(C(=O)c2cc3cc(F)ccc3n2CC(=O)N2CCC[C@H]2COc2cc(CN3CCC(Oc4ccnc5ccsc45)CC3)on2)[C@@H](C)C1)C1CCCCC1 [Example 28, (S)-N-((S)-1-Cyclohexyl-2-((S)-4-(5-fluoro-1-(2-oxo-2-((S)-2-(((5-((4-(thieno[3,2-b]pyridin-7-yloxy)piperidin-1-yl)methyl)isoxazol-3-yl)oxy)methyl)pyrrolidin-1-yl)ethyl)-1H-indole-2-carbonyl)-3-methylpiperazin-1-yl)-2-oxoethyl)-2-(methylamino)propanamide]",300 to 1000 nM,3000 to 30000 nM,< 30 nM,–
"CN[C@@H](C)C(=O)N[C@H](C(=O)N1CCC[C@H]1c1nc(C(=O)c2cccc(OCCOCCOc3cc(CN4CCC(Oc5ccnc6ccsc56)CC4)on3)c2)cs1)C1CCCCC1 [Example 58, (S)-N-((S)-1-cyclohexyl-2-oxo-2-((S)-2-(4-(3-(2-(2-((5-((4-(thieno[3,2-b]pyridin-7-yloxy)piperidin-1-yl)methyl)isoxazol-3-yl)oxy)ethoxy)ethoxy)benzoyl)thiazol-2-yl)pyrrolidin-1-yl)ethyl)-2-(methylamino)propanamide]",–,< 300 nM,–,< 25%
"CN[C@@H](C)C(=O)N[C@H](C(=O)N1CCC[C@H]1c1nc(C(=O)c2cccc(OCCOCCOCCOCCOc3cc(CN4CCC(Oc5ccnc6ccsc56)CC4)on3)c2)cs1)C1CCCCC1 [Example 60, (S)-N-((S)-1-cyclohexyl-2-oxo-2-((S)-2-(4-(3-(2-(2-(2-(2-((5-((4-(thieno[3,2-b]pyridin-7-yloxy)piperidin-1-yl)methyl)isoxazol-3-yl)oxy)ethoxy)ethoxy)ethoxy)ethoxy)benzoyl)thiazol-2-yl)pyrrolidin-1-yl)ethyl)-2-(methylamino)propanamide]",–,< 300 nM,–,< 25%

# The next lines start with the values.
IC50 (IRAK-M [1]),IC50 [2],DC50 (IRAK-M [3]),remaining binding at 1 µM (IRAK-M [1]),Compound
–,3000 to 30000 nM,30 to 100 nM,< 25%,"CN[C@@H](C)C(=O)N[C@H](C(=O)N1CCN(C(=O)c2cc3cc(F)c(F)cc3n2CC(=O)N2CCC[C@H]2COc2cc(CN3CCC(Oc4ccnc5ccsc45)CC3)on2)CC1)C1CCCCC1 [Example 25, (S)-N-((S)-1-Cyclohexyl-2-(4-(5,6-difluoro-1-(2-oxo-2-((S)-2-(((5-((4-(thieno[3,2-b]pyridin-7-yloxy)piperidin-1-yl)methyl)isoxazol-3-yl)oxy)methyl)pyrrolidin-1-yl)ethyl)-1H-indole-2-carbonyl)piperazin-1-yl)-2-oxoethyl)-2-(methylamino)propanamide hydrochloride]"
300 to 1000 nM,3000 to 30000 nM,< 30 nM,–,"CN[C@@H](C)C(=O)N[C@H](C(=O)N1CCN(C(=O)c2cc3cc(F)ccc3n2CC(=O)N2CCC[C@H]2COc2cc(CN3CCC(Oc4ccnc5ccsc45)CC3)on2)CC1)C1CCCCC1 [Example 26, (S)-N-((S)-1-Cyclohexyl-2-(4-(5-fluoro-1-(2-oxo-2-((S)-2-(((5-((4-(thieno[3,2-b]pyridin-7-yloxy)piperidin-1-yl)methyl)isoxazol-3-yl)oxy)methyl)pyrrolidin-1-yl)ethyl)-1H-indole-2-carbonyl)piperazin-1-yl)-2-oxoethyl)-2-(methylamino)propanamide]"
300 to 1000 nM,3000 to 30000 nM,< 30 nM,–,"CN[C@@H](C)C(=O)N[C@H](C(=O)N1CCN(C(=O)c2cc3cc(F)c(F)cc3n2CC(=O)N2CCC[C@H]2COc2cc(CN3CCC(Oc4ccnc5ccsc45)CC3)on2)[C@@H](C)C1)C1CCCCC1 [Example 27, (S)-N-((S)-1-Cyclohexyl-2-((S)-4-(5,6-difluoro-1-(2-oxo-2-((S)-2-(((5-((4-(thieno[3,2-b]pyridin-7-yloxy)piperidin-1-yl)methyl)isoxazol-3-yl)oxy)methyl)pyrrolidin-1-yl)ethyl)-1H-indole-2-carbonyl)-3-methylpiperazin-1-yl)-2-oxoethyl)-2-(methylamino)propanamide]"
–,3000 to 30000 nM,100 to 300 nM,–,"CN[C@@H](C)C(=O)N[C@H](C(=O)N1CCN(C(=O)c2cc3cc(F)c(F)cc3n2CC(=O)N2CCC[C@H]2COc2cc(CN3CCC(Oc4ccnc5ccsc45)CC3)on2)CC1)C1CCC(F)(F)CC1 [Example 48, (S)-N-((S)-2-(4-(5,6-difluoro-1-(2-oxo-2-((S)-2-(((5-((4-(thieno[3,2-b]pyridin-7-yloxy)piperidin-1-yl)methyl)isoxazol-3-yl)oxy)methyl)pyrrolidin-1-yl)ethyl)-1H-indole-2-carbonyl)piperazin-1-yl)-1-(4,4-difluorocyclohexyl)-2-oxoethyl)-2-(methylamino)propanamide]"
–,3000 to 30000 nM,30 to 100 nM,–,"CN[C@@H](C)C(=O)N[C@H](C(=O)N1CCN(C(=O)c2cc3cc(F)c(F)cc3n2CC(=O)N2CCC[C@H]2COc2cc(CN3CCC(Oc4ccnc5ccsc45)CC3)on2)[C@@H](C)C1)C1CCC(F)(F)CC1 [Example 49, (S)-N-((S)-2-((S)-4-(5,6-difluoro-1-(2-oxo-2-((S)-2-(((5-((4-(thieno[3,2-b]pyridin-7-yloxy)piperidin-1-yl)methyl)isoxazol-3-yl)oxy)methyl)pyrrolidin-1-yl)ethyl)-1H-indole-2-carbonyl)-3-methylpiperazin-1-yl)-1-(4,4-difluorocyclohexyl)-2-oxoethyl)-2-(methylamino)propanamide]"
